Test results published in paper PMC6368403, “Identification of a bilirubin receptor that may mediate a component of cholestatic itch” (eLife, 2019).

Key:
MRGPRC11 = biological target: T1, MRGPRC11 (Mus musculus, UniProt Q8CIP3); experiment: Microscale thermophoresis binding to MRGPRC11; conditions: for microscale thermophoresis response (binding isotherm), mean: mean of n=3, Fig 2-O
T1 construct: expressed in transfected cells
T1 sequence (Q8CIP3 1-322): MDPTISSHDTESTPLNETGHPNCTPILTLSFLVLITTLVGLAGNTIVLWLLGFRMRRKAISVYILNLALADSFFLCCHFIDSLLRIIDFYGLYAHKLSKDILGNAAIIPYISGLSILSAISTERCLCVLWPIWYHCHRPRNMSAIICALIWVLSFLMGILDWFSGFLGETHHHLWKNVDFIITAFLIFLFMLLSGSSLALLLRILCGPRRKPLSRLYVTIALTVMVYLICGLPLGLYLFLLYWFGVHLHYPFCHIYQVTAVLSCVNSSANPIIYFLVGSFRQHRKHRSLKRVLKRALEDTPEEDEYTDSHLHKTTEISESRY
Protocol: Binding isotherms for MRGPRA1, MRGPRX4, and MRGRPC11 towards various ligands were determined by microscale thermophoresis with the NanoTemper monolith NT.115 instrument ([Duhr and Braun, 2006]). Ligands were pre-incubated with 10 µM of the GFP-tagged receptor of interest for 5 min at room temperature in binding buffer (20 mM Tris and 150 mM NaCl at pH 8.8). Receptors were crudely purified as a membrane fraction from cells stably expressing the receptor ([Vasavda et al., 2017]). Haem metabolites were freshly dissolved in 0.1 M NaOH in dim light and then diluted into assay buffer. Lyophilized BAM8-22 was dissolved in binding buffer. The pH of each ligand was evaluated prior to incubation with a receptor. Samples were loaded into NT.115 Hydrophobic-Treated Capillaries from NanoTemper. Microscale thermophoretic experiments were executed using 20% LED power and 15% MST power. KDs were calculated using the law of mass action with data from three independent experiments. Binding between bilirubin and receptors was evaluated purely thermophoretically, whereas binding between BAM8-22 and MRGPRC11 was evaluated by T-Jump. Samples with dramatic deviations in initial fluorescence were excluded.

[1] = tested on: small-diameter DRG sensory neurons; experiment: Whole-cell current-clamp recording of DRG neurons; format: cell-based, mouse; conditions: 50 µM bilirubin
Protocol: (§1) DRG neurons from all spinal levels were collected in cold DH10 media (90% Dulbecco’s modified Eagle’s medium (DMEM)/F-12, 10% FBS, penicillin (100 U/mL), and streptomycin (100 μg/mL)). DRGs were digested with a dispase (5 mg/ml)/collagenase type I (1 mg/ml) enzyme mixture at 37°C for 45 min. After trituration, cells were spun at 300 g and re-suspended in DH10 before being plated on glass coverslips coated with poly-D-lysine (0.5 mg/ml) and laminin (10 μg/ml, Invitrogen). DRGs were cultured with DH10 supplemented with 50 ng/mL NGF at 37°C.
DRG neurons from 3 to 5 week old mice were collected as described. After culture for 1–3 days, DRG neurons were transferred into a chamber with extracellular solution containing (in mM) 144 NaCl, 2.5 KCl, 2 CaCl2, 0.5 MgCl2, 5 HEPES, and 10 glucose, adjusted to pH 7.4 with NaOH. Whole-cell current-clamp recordings were performed at ~23°C using borosilicate capillary glass electrodes (Sutter Instrument) with a tip resistance of 3–5 MΩ. Internal solution contained (in mM) 80 K-acetate, 30 KCl, 40 HEPES, and 1 CaCl2, adjusted to pH 7.4 with potassium hydroxide (KOH). Small-diameter neurons with diameter 15–25 μm were chosen for patch-clamp. Data were acquired using an […] Amplifier and Digidata 1322A Digitizer with pClamp9.2 software package (Axon Instrument). […] Solutions containing 50 mM KCl were applied at the end of each cellular recording. Only neurons that could fire action potentials after adding KCl were regarded as healthy and appropriate for inclusion in data analysis.

DRG neurons = experiment: Ca2+ imaging of cultured DRG neurons; format: cell-based, mouse; conditions: for Percent activated neurons: 50 µM bilirubin (Fig 3H)
Protocol: All cultured cells were maintained in DMEM supplemented with 10% FBS and 1% Penicillin/Streptomycin at 37°C, 5% CO2. […] Cells were imaged in calcium imaging buffer (CIB; 10 mM HEPES, 1.2 mM NaHCO3, 130 mM NaCl, 3 mM KCl, 2.5 mM CaCl2, 0.6 mM MgCl2, 20 mM glucose, and 20 mM sucrose at pH 7.4 and 290–300 mOsm). To monitor changes in intracellular [Ca^2+] ([Ca^2+]i), cells were loaded with either Fura 2-AM (HEK293 cells) or Fluo 4-AM (DRG neurons and mast cells) for 30 min in the dark at 37°C in CIB just prior to imaging. With Fura 2-AM, emission at 510 nm was monitored from excitation at both 340 nm and 380 nm. With Fluo 4-AM, emission at 520 nm was monitored from excitation at 488 nm. Cells were identified as responding if the intracellular [Ca^2+] rose by either 50% compared to baseline or 50% compared to the [Ca^2+]i change assayed during addition of 50 mM KCl (neurons only). Damaged, detached, high-baseline, and motion-activated cells were excluded from analysis.
DRGs were incubated with Fluo-4 AM 24 hr after dissociation (native genotype) or 48 hr after dissociation (virally transduced). Unless otherwise noted, cells were imaged for 20 seconds to establish a baseline before compounds were added. After 30 s, a 2 min wash was applied before addition of another substances. At the end of every imaging trial, 50 mM KCl was added as a positive control. […] For ruthenium red inhibitor experiments, neurons were incubated with 10 µM ruthenium red for 5 min prior to imaging. Percentage activated was determined as earlier described.
as §1

microscale thermophoresis response (binding isotherm), mean (MRGPRC11; [Ligand] 3.05e-8 M): 2.385e-5
microscale thermophoresis response (binding isotherm), mean (MRGPRC11; [Ligand] 6.1e-8 M): 4.712e-5
microscale thermophoresis response (binding isotherm), mean (MRGPRC11; [Ligand] 1.221e-7 M): 4.182e-5
microscale thermophoresis response (binding isotherm), mean (MRGPRC11; [Ligand] 2.441e-7 M): 4.08e-5
microscale thermophoresis response (binding isotherm), mean (MRGPRC11; [Ligand] 4.883e-7 M): 5.536e-5
microscale thermophoresis response (binding isotherm), mean (MRGPRC11; [Ligand] 9.766e-7 M): 1.928e-5
microscale thermophoresis response (binding isotherm), mean (MRGPRC11; [Ligand] 1.9531e-6 M): -5.329e-6
microscale thermophoresis response (binding isotherm), mean (MRGPRC11; [Ligand] 3.9063e-6 M): -1.57e-5
microscale thermophoresis response (binding isotherm), mean (MRGPRC11; [Ligand] 7.8125e-6 M): -3.808e-5
microscale thermophoresis response (binding isotherm), mean (MRGPRC11; [Ligand] 1.5625e-5 M): -4.952e-5
microscale thermophoresis response (binding isotherm), mean (MRGPRC11; [Ligand] 3.125e-5 M): -4.222e-5
microscale thermophoresis response (binding isotherm), mean (MRGPRC11; [Ligand] 6.25e-5 M): 5.5228e-6
microscale thermophoresis response (binding isotherm), mean (MRGPRC11; [Ligand] 0.000125 M): 4.793e-5
microscale thermophoresis response (binding isotherm), mean (MRGPRC11; [Ligand] 0.00025 M): 9.26e-5
microscale thermophoresis response (binding isotherm), mean (MRGPRC11; [Ligand] 0.0005 M): 0.0002843
Affinity for MRGPRC11 (MRGPRC11; microscale thermophoresis): little to no affinity
SMILES: C=CC1=C(C)/C(=C/c2[nH]c(Cc3[nH]c(/C=C4\NC(=O)C(C)=C4C=C)c(C)c3CCC(=O)O)c(CCC(=O)O)c2C)NC1=O [bilirubin, bilirubin IXα]
Small-diameter neurons in which action potentials were elicited ([1]; A1 KO DRG): 0 out of 60
Small-diameter neurons in which action potentials were elicited ([1]; A1 KO DRG, listed as Bilirubin): 0 of 60
Small-diameter neurons in which action potentials were elicited ([1]; WT DRG): 5 out of 50
Small-diameter neurons in which action potentials were elicited ([1]; WT DRG, listed as Bilirubin): 5 of 50
Percent activated neurons (DRG neurons; A1 KO DRG): 1.8%
Percent activated neurons (DRG neurons; Mrgpr-cluster KO DRG): 1.9%
Percent activated A3+ neurons (DRG neurons; Tg(Mrgpra3-Cre);lsl-tdTomato neurons, 50 µM bilirubin (Fig 4D)): 51.4%
Percent activated neurons (DRG neurons; WT DRG): approximately 5%
Percent activated neurons (DRG neurons; WT DRG, listed as Bilirubin): 5.43%
